Assay results published in patent US4362663A, “Maytansinoid compound” (Takeda Chemical Industries, Ltd., priority 1979, dated 1982).
Values after ≈ are worked out from the molar mass of the structure shown.

Tests used:
Solubility = assay type: physicochemical
mice = test: Acute toxicity test in mice; assay type: in vivo; conditions: intraperitoneal
Text: In an acute toxicity test performed in mice, PND-1, PND-2, PND-3 and PND-4 were given to animals by the intraperitoneal route.

[1] = system: Hamigera avellanea IFO 7721; test: Microbiological assay, paper disk method; assay type: cell-based; conditions: IFO7721, paper disk diam. 8 mm, 0.02 ml of a 100 μg/ml solution, pH 7.0 medium, read-out: diameter of zone of inhibition
Procedure: On the other hand, on a plate assay medium [disodium phosphate 3.5 g, monopotassium phosphate 0.5 g, yeast extract (Difco, U.S.A.) 5 g, glucose 10 g, agar 15 g, distilled water 1000 ml, pH 7.0], a microbiological assay was carried out by the paper disk method using Hamigera avellanea IFO 7721 as a test organism. On said plate medium inoculated with said organism, growth inhibition was examined using a paper disk (Toyo Roshi Corp., Japan, Thin type, diam.8 mm) imbibed with 0.02 ml of a 100 μg/ml solution of PND-1, PND-2, PND-3 or PND-4. The diameters of zones of inhibition were 28 mm for PND-1, 30 mm for PND-2, 34 mm for PND-3 and 36 mm for PND-4.

Bacillus cereus = test: Antimicrobial activity, paper disk method on trypticase-soy-agar; assay type: cell-based; conditions: paper disk diam. 8 mm, 0.02 ml of a 300 μg/ml solution
Procedure: (§1) Using trypticase-soy-agar (Baltimore Biologicals, U.S.A.) as a test medium, the minimal inhibitory concentration of each compound against the following microorganisms was determined by the paper disk method. Thus, on plate media containing the following organisms, growth inhibition was investigated using paper disks (Toyo Roshi Corp., Japan thin-type, diam. 8 mm) imbibed with 0.02 ml of a 300 μg/ml solution of PND-1, PND-2, PND-3 or PND-4.
(§2) Escherichia coli, Proteus vulgaris, Proteus mirabilis, Pseudomonas aeruginosa, Staphylococcus aureus, Bacillus subtilis, Bacillus cereus, Klebsiella pneumoniae, Serratia marcescens, Mycobacterium avium.

Pseudomonas aeruginosa = test: as above; assay type: cell-based; conditions: paper disk diam. 8 mm, 0.02 ml of a 300 μg/ml solution
Procedure: as §1, §2

Proteus vulgaris = test: as above; assay type: cell-based; conditions: paper disk diam. 8 mm, 0.02 ml of a 300 μg/ml solution
Procedure: as §1, §2

Mycobacterium avium = test: as above; assay type: cell-based; conditions: paper disk diam. 8 mm, 0.02 ml of a 300 μg/ml solution
Procedure: as §1, §2

Serratia marcescens = test: as above; assay type: cell-based; conditions: paper disk diam. 8 mm, 0.02 ml of a 300 μg/ml solution
Procedure: as §1, §2

Staphylococcus aureus = test: as above; assay type: cell-based; conditions: paper disk diam. 8 mm, 0.02 ml of a 300 μg/ml solution
Procedure: as §1, §2

Bacillus subtilis = test: as above; assay type: cell-based; conditions: paper disk diam. 8 mm, 0.02 ml of a 300 μg/ml solution
Procedure: as §1, §2

Escherichia coli = test: as above; assay type: cell-based; conditions: paper disk diam. 8 mm, 0.02 ml of a 300 μg/ml solution
Procedure: as §1, §2

Klebsiella pneumoniae = test: as above; assay type: cell-based; conditions: paper disk diam. 8 mm, 0.02 ml of a 300 μg/ml solution
Procedure: as §1, §2

Proteus mirabilis = test: as above; assay type: cell-based; conditions: paper disk diam. 8 mm, 0.02 ml of a 300 μg/ml solution
Procedure: as §1, §2

[2] = system: Tetrahymena pyriformis W strain; test: Minimal inhibitory concentration, serial broth dilution method; assay type: cell-based; conditions: 28° C., 44 to 48 hours
Procedure: On the other hand, Tetrahymena pyriformis W strain, as a test organism, was cultivated on an assay medium [Proteose-peptone (Difco) 20 g, yeast extract 1 g, glucose 2 g, distilled water 1000 ml, 1 M phosphate buffer (pH 7.0) 10 ml] at 28° C. for 44 to 48 hours and the minimal inhibitory concentrations of the antibiotics against said organisms were determined by the serial broth dilution method.

P388 tumor cell = test: Antitumor activity in P388 tumor-bearing mice; assay type: in vivo; conditions: P388 1×10^6 cell/mouse, intraperitoneal
Text: The therapeutic action of PND-1, PND-2, PND-3 and PND-4 against P388 tumor cell (1×10^6 cell/mouse, intraperitoneal) was investigated.

In the case of `COc1cc2cc(c1Cl)NC(=O)C[C@H](O)[C@]1(C)O[C@H]1[C@H](C)[C@@H]1C[C@@](O)(NC(=O)O1)[C@H](OC)/C=C/C=C(\C)C2` [PND-0], the “Solubility in chloroform, ethyl acetate, acetone, ethanol, methanol, pyridine, tetrahydrofuran, dimethylsulfoxydo” value (shortened to “Solubility in chloroform, ethyl acetate”) (Solubility) is reported as “soluble” and the “Solubility in petroleum ether, n-hexane, water” value (shortened to “Solubility in petroleum ether”) (Solubility) is reported as “insoluble”.

In the case of `COc1cc2cc(c1Cl)NC(=O)C[C@H](OC(=O)CC(C)C)[C@]1(C)O[C@H]1[C@H](C)[C@@H]1C[C@@](O)(NC(=O)O1)[C@H](OC)/C=C/C=C(\C)C2` [PND-4], the LD0 (mice) is reported as 0.313 mg/kg, the LD100 (mice) is reported as 2.5 mg/kg and the zone of inhibition at 100 µg/mL [1] is reported as 36 mm. For the same compound, the growth inhibition (Bacillus cereus) was “did not exhibit activity”, the growth inhibition (Pseudomonas aeruginosa) was “did not exhibit activity” and the growth inhibition (Proteus vulgaris) was “did not exhibit activity”. The growth inhibition (Mycobacterium avium) was “did not exhibit activity”, the growth inhibition (Serratia marcescens) was “did not exhibit activity” and the growth inhibition (Staphylococcus aureus) was “did not exhibit activity”. For the same compound, the growth inhibition (Bacillus subtilis) was “did not exhibit activity”, the growth inhibition (Escherichia coli) was “did not exhibit activity” and the growth inhibition (Klebsiella pneumoniae) was “did not exhibit activity”. The growth inhibition (Proteus mirabilis) was “did not exhibit activity”, the “Solubility in chloroform, ethyl acetate” value (Solubility) was “soluble” and the “Solubility in petroleum ether” value (Solubility) was “insoluble”. The MIC [2] was 1 µg/mL (≈ 1.57 µM) and the “life span of tumor-bearing mouse” value (P388 tumor cell) was “prolong the life span of a tumor-bearing mouse”.

For `COc1cc2cc(c1Cl)NC(=O)C[C@H](OC(C)=O)[C@]1(C)O[C@H]1[C@H](C)[C@@H]1C[C@@](O)(NC(=O)O1)[C@H](OC)/C=C/C=C(\C)C2` [PND-1], the LD0 (mice) was 0.313 mg/kg, the LD100 (mice) was 2.5 mg/kg and the zone of inhibition at 100 µg/mL [1] was 28 mm. The growth inhibition (Bacillus cereus) was “did not exhibit activity”, the growth inhibition (Pseudomonas aeruginosa) was “did not exhibit activity” and the growth inhibition (Proteus vulgaris) was “did not exhibit activity”. The growth inhibition (Mycobacterium avium) was “did not exhibit activity”, the growth inhibition (Serratia marcescens) was “did not exhibit activity” and the growth inhibition (Staphylococcus aureus) was “did not exhibit activity”. For the same compound, the growth inhibition (Bacillus subtilis) was “did not exhibit activity”, the growth inhibition (Escherichia coli) was “did not exhibit activity” and the growth inhibition (Klebsiella pneumoniae) was “did not exhibit activity”. For the same compound, the growth inhibition (Proteus mirabilis) was “did not exhibit activity”, the “Solubility in chloroform, ethyl acetate” value (Solubility) was “soluble” and the “Solubility in petroleum ether” value (Solubility) was “insoluble”. For the same compound, the MIC [2] was 8 µg/mL (≈ 13.5 µM) and the “life span of tumor-bearing mouse” value (P388 tumor cell) was “prolong the life span of a tumor-bearing mouse”.

`COc1cc2cc(c1Cl)NC(=O)C[C@H](OC(=O)C(C)C)[C@]1(C)O[C@H]1[C@H](C)[C@@H]1C[C@@](O)(NC(=O)O1)[C@H](OC)/C=C/C=C(\C)C2` [PND-3] showed an LD0 (mice) of 0.313 mg/kg, an LD100 (mice) of 2.5 mg/kg and a zone of inhibition at 100 µg/mL [1] of 34 mm. For the same compound, the growth inhibition (Bacillus cereus) was “did not exhibit activity”, the growth inhibition (Pseudomonas aeruginosa) was “did not exhibit activity” and the growth inhibition (Proteus vulgaris) was “did not exhibit activity”. For the same compound, the growth inhibition (Mycobacterium avium) was “did not exhibit activity”, the growth inhibition (Serratia marcescens) was “did not exhibit activity” and the growth inhibition (Staphylococcus aureus) was “did not exhibit activity”. The growth inhibition (Bacillus subtilis) was “did not exhibit activity”, the growth inhibition (Escherichia coli) was “did not exhibit activity” and the growth inhibition (Klebsiella pneumoniae) was “did not exhibit activity”. The growth inhibition (Proteus mirabilis) was “did not exhibit activity”, the “Solubility in chloroform, ethyl acetate” value (Solubility) was “soluble” and the “Solubility in petroleum ether” value (Solubility) was “insoluble”. The MIC [2] was 2 µg/mL (≈ 3.22 µM) and the “life span of tumor-bearing mouse” value (P388 tumor cell) was “prolong the life span of a tumor-bearing mouse”.

Work on `CCC(=O)O[C@H]1CC(=O)Nc2cc(cc(OC)c2Cl)C/C(C)=C/C=C/[C@@H](OC)[C@@]2(O)C[C@H](OC(=O)N2)[C@@H](C)[C@@H]2O[C@@]12C` [PND-2] yielded an LD0 (mice) of 0.313 mg/kg, an LD100 (mice) of 2.5 mg/kg and a zone of inhibition at 100 µg/mL [1] of 30 mm. For the same compound, the growth inhibition (Bacillus cereus) was “did not exhibit activity”, the growth inhibition (Pseudomonas aeruginosa) was “did not exhibit activity” and the growth inhibition (Proteus vulgaris) was “did not exhibit activity”. For the same compound, the growth inhibition (Mycobacterium avium) was “did not exhibit activity”, the growth inhibition (Serratia marcescens) was “did not exhibit activity” and the growth inhibition (Staphylococcus aureus) was “did not exhibit activity”. The growth inhibition (Bacillus subtilis) was “did not exhibit activity”, the growth inhibition (Escherichia coli) was “did not exhibit activity” and the growth inhibition (Klebsiella pneumoniae) was “did not exhibit activity”. For the same compound, the growth inhibition (Proteus mirabilis) was “did not exhibit activity”, the “Solubility in chloroform, ethyl acetate” value (Solubility) was “soluble” and the “Solubility in petroleum ether” value (Solubility) was “insoluble”. For the same compound, the MIC [2] was 4 µg/mL (≈ 6.59 µM) and the “life span of tumor-bearing mouse” value (P388 tumor cell) was “prolong the life span of a tumor-bearing mouse”.
